Assay results reported in patent US20260317367A1, “SALTS INCLUDING CRYSTALLINE SALTS OF 25-HYDROXY-CHOLEST-5-EN-3-SULFATE AND METHODS FOR PREPARING SAME” (Durect Corporation, priority 2022, published 2026).
Structures can show the parent of a compound that is named as a salt. Where two headings read alike, the source gives them in different places.

Legend:
Type in all cases: physicochemical
[1] = Overall rank order of powder flowability (angle of repose and Hausner ratio); settings: for Powder flowability, overall (in words): angle of repose and compressibility index/Hausner ratio combined; for Angle of Repose Rank Order / Hausner Ratio Rank Order / Overall Rank Order (Total Score): lower is better flow; for Overall Rank Order (Total Score): sum of both ranks
Excerpt: Table C5 was generated by adding the relative rank order of the 25HC3S salts for angle of repose and Hausner ratio results, and creating an Over All Rank Order of the salts powder flowability. The salts with the lower overall rank order score had better powder flowability.

[2] = Angle of repose of 25HC3S salts
Method: Angle of repose is measured as follows. Powder is poured from a funnel onto a flat surface until a cone of powder is created. The angle of repose is calculated according to the following equation: […]
Table C1, from USP<1174> Powder Flow, describes the powder flow properties correlating to the angles of repose.
The lower the angle of repose, the more flowable is a material. Powder with an angle of repose between 25° to 30° will show excellent flow through a hopper, feed frame, die table and die bore smoothly. From 41° to greater than 66°, you may experience powder flow difficulties like rat-holing or bridging within the hopper.
The angle of repose was determined by pouring approximately 2 grams of a 25HC3S salt through a 7 mm inner diameter plastic tube into the center of a 21.14 mm diameter rubber O-ring, resulting in the formation of a powder cone of fixed diameter. The height of the cone was estimated with calipers.

[3] = Solid-state chemical stability of 25HC3S salts at 2-8° C., 60° C. and 80° C. (HPLC assay and degradation products); settings: for % Impurities, Total / % Impurities, 25-HC: ND = Not Detected; for % Impurities, 25-HC: 25-Hydroxy-Cholesterol
Method: Approximately 25 mg of each crystalline 25HC3S salt was added to 20 mL glass vials and each powder weight was recorded. Four vials were prepared for each salt and stored at 2-8° C. or 80° C. according to Table B2. The samples were scheduled initially to pull for testing at 3 weeks and 6 weeks' time points.
For those […] salts, the remaining vials stored at 2-8° C. for 3 weeks were allocated for storage at 60° C. for 1 week. Additional stability data was generated according to Table B3.
Based on the molecular weights, and expected UV response factors of each salt used in this study, the expected analytical sample concentrations were within the range of the 25HC3S sodium reference standards (0.75 mg/mL to 1.25 mg/mL as 25HC3S sodium salt). However, due to the lower-than-expected purity of the 25HC3S benzathine salt, an additional standard was prepared at 0.125 mg/mL as 25HC3S sodium salt.
Samples were prepared by pipetting 20 mL of 100% methanol into each vial and mixing well, with sonication and vortexing to fully dissolve the samples for HPLC analysis.
Samples were prepared by pipetting 20 mL of 100% methanol into each vial followed by two rounds of sonication for 30 minutes, with 30 seconds of vortexing before and after each round. Sample aliquots were then centrifuged at 10,000 RPM for 10 minutes and the supernatant collected for HPLC analysis.
Samples were prepared by pipetting 20 mL of 100% methanol into each vial, followed by 5 seconds of vortexing. The undissolved powder in methanol was quantitatively transferred into 200 mL volumetric flasks. The sample vials were rinsed 3 times with methanol, with each rinsate transferred to the 200 mL volumetric flasks. The volumetric flasks were filled to about 90% volume and sonicated for 10 minutes to fully dissolve the powder. The flasks were filled to volume with methanol, mixed well and aliquots collected for HPLC analysis.
HPLC analysis was performed.

[4] = Thermogravimetric analysis (TGA), weight loss
Method: Differential scanning calorimetry (DSC) is a thermoanalytical technique where the difference in the amount of heat required to increase the temperature of a sample and reference is measured as a function of temperature. Using this technique, phase transitions of a sample can be measured such as melting point. Decomposition can also be observed by DSC as can dehydration events. In the context of DSC measurements, there is also variability and the term “about” means ±1° C., and such variability is to be understood whether a DSC measurement is prefaced by “about” or not unless specified otherwise. Exemplary methods for collecting DSC data are set forth in Example 21. Thermogravimetric analysis, sometimes referred to as, thermal gravimetric analysis (TGA) is a thermal method of thermal analysis where the mass of a sample is measured as a function of time as the sample temperature changes. For example, when samples disclosed herein are heated and a loss in mass is measured prior to decomposition, this is likely indicative of the loss of water from the sample and may indicate that the sample being heated is a hydrate. Exemplary methods for collecting TGA are set forth in Example 23.
TG analysis was performed using a Mettler-Toledo TGA/DSC3 analyzer. Temperature and enthalpy adjustments were performed using indium, tin, and zinc, and then verified with indium. The balance was verified with calcium oxalate. The sample was placed in an open aluminum pan. The pan was hermetically sealed, the lid pierced, then inserted into the TG furnace. A weighed aluminum pan configured as the sample pan was placed on the reference platform. The furnace was heated under nitrogen. Each sample was heated from ambient temperature to 350° C. at 10° C./min. Although thermograms are plotted by reference temperature (x-axis), results are reported according to sample temperatures.

[5] = solid state, 80° C., 5 wk, read-out: % Recovery, 2-8° C./5 wk vs 80° C./5 wk
[6] = 60° C., 1 wk, listed as 25HC3S meglumine
[7] = 2-8° C., 3 wk, listed as 25HC3S choline
[8] = 2-8° C., 5 wk, listed as 25HC3S choline
[9] = 80° C., 3 wk, listed as 25HC3S choline
[10] = 80° C., 5 wk, listed as 25HC3S choline

## C[C@H](CCCC(C)(C)O)[C@H]1CC[C@H]2[C@@H]3CC=C4C[C@@H](OS(=O)(=O)O)CC[C@]4(C)[C@H]3CC[C@]12C [Salt #14]
[1]; listed as crystalline 25HC3S lysine
  Powder flowability, overall (in words): relatively good flowability
[1]; listed as lysine
  Powder flowability, overall (in words): top three
[1]
  Angle of Repose Rank Order: 2
  Hausner Ratio Rank Order: 2
  Overall Rank Order (Total Score): 4
[2]
  Angle of Repose: 25.7 degrees
  Angle of Repose, Rounded Whole Number: 26 degrees
[3]; 2-8° C., 3 wk
  % Impurities, Total: 3.2%
  % Impurities, 25-HC: 0.3%
[3]; 2-8° C., 5 wk
  % Impurities, Total: 2.4%
  % Impurities, 25-HC: 0.3%
[3]; 2-8° C., 60° C., 80° C.
  Overall physical and chemical stability (in words): physically and chemically stable
[3]; 2-8° C., 60° C., 80° C., listed as lysine
  Overall physical and chemical stability (in words): relatively stable
[3]; 80° C., 3 wk
  % Impurities, 25-HC: 0.3%
  % Impurities, Total: 3.7%
[3]; 80° C., 5 wk
  % Impurities, 25-HC: 0.3%
  % Impurities, Total: 3.1%
[3]; 80° C.
  Stressed stability at 80° C. (in words): good, stressed stability
[3]; 80° C., 5 weeks
  Physical and chemical solid-state stability (comments): Stable after 5 weeks at 80 °C physically and chemically.
[3]; solid state, 2-8° C., 3 wk, read-out: Assay
  remaining at 504 h: 91.5%
[3]; solid state, 2-8° C., 5 wk, read-out: Assay
  remaining at 840 h: 94.2%
[3]; solid state, 80° C., 3 wk, vs 2-8° C., read-out: % Recovery
  remaining at 504 h: 101%
[3]; solid state, 80° C., 3 wk, read-out: Assay
  remaining at 504 h: 92.8%
[3]; solid state, 80° C., 5 weeks
  Stability after 5 weeks at 80° C. (in words): stable
[3]; [5]
  remaining at 840 h: 103%
[3]; solid state, 80° C., 5 wk, read-out: Assay
  remaining at 840 h: 96.9%
[4]; 100° C. to […] C., partly decomposition
  Weight loss by TGA, 100° C. to […] C.: about 8.8%
[4]; to about 100° C.
  Weight loss by TGA to about 100° C.: about 1.5%

## CC(CCCC(C)(C)O)C1CCC2C3CC=C4CC(OS(=O)(=O)O)CCC4(C)C3CCC12C (stereo not drawn) [Salt #7]
[1]; listed as meglumine
  Powder flowability, overall (in words): next group
[1]; listed as 25HC3S meglumine
  Angle of Repose Rank Order: 5
  Hausner Ratio Rank Order: 12
  Overall Rank Order (Total Score): 17
[2]; classification by angle of repose, listed as 25HC3S meglumine
  Flow Property per USP<1174> Powder Flow: Fair - aid not needed
[2]; listed as 25HC3S meglumine
  Angle of Repose: 37.3 degrees
  Angle of Repose, Rounded Whole Number: 37 degrees
[3]; 2-8° C., 3 wk, 30240 min, listed as 25HC3S meglumine
  Assay: 98.3 % w/w
[3]; 2-8° C., 3 wk, listed as 25HC3S meglumine
  % Impurities, Total: 0.9%
[3]; [6]
  % Impurities, 25-HC: 0.4%
  % Impurities, Total: 1.7%
[3]; 60° C., 1 week, listed as 25HC3S Meglumine
  Physical and chemical solid-state stability (comments): Stable after 1 week at 60 °C
[3]; 60° C., 1 wk (after 3 weeks at 2-8° C.), 10080 min, listed as 25HC3S meglumine, 10080 min
  Assay: 104.6 % w/w
[3]; 60° C., 1 wk, 10080 min, listed as 25HC3S meglumine
  % Recovery of 2-8° C./3 wk vs 60° C./1 wk: 106.4%
[3]; 80° C., 3 weeks, listed as 25HC3S Meglumine
  Physical and chemical solid-state stability (comments): totally decomposed after 3
[3]; 80° C., 3 wk, vs 2-8° C., 30240 min, listed as 25HC3S meglumine, 30240 min
  % Recovery: 0.0%
[3]; 80° C., 3 wk, 30240 min, listed as 25HC3S meglumine
  Assay: 0.0 % w/w
[3]; 80° C., 3 wk, listed as 25HC3S meglumine
  % Impurities, Total: 100.3%
[3]; solid state, 60° C., 1 week (after 3 weeks at 2-8° C.)
  Stability after 1 week at 60° C. (in words): stable
[3]; solid state, 80° C., 3 weeks
  Stability after 3 weeks at 80° C. (in words): totally decomposed
[4]; starting with ambient
  Loss of moisture by TGA, starting with ambient: about 3.2%

## CC(CCCC(C)(C)O)C1CCC2C3CC=C4CC(OS(=O)(=O)O)CCC4(C)C3CCC12C (stereo not drawn) [Salt #4]
[1]; listed as choline
  Powder flowability, overall (in words): next group
[1]; listed as 25HC3S choline
  Angle of Repose Rank Order: 4
  Hausner Ratio Rank Order: 15
  Overall Rank Order (Total Score): 19
[2]; listed as 25HC3S choline
  Angle of Repose: 34.9 degrees
  Angle of Repose, Rounded Whole Number: 35 degrees
[3]; 2-8° C., 3 wk, 30240 min, listed as 25HC3S choline
  Assay: 101.6 % w/w
[3]; [7]
  % Impurities, Total: 1.0%
  % Impurities, 25-HC: 0.2%
[3]; 2-8° C., 5 wk, 50400 min, listed as 25HC3S choline
  Assay: 108.1 % w/w
[3]; [8]
  % Impurities, Total: 0.9%
  % Impurities, 25-HC: 0.2%
[3]; 2-8° C., 60° C., 80° C.
  Overall physical and chemical stability (in words): physically and chemically stable
[3]; 2-8° C., 60° C., 80° C., listed as 25HC3S choline
  Overall physical and chemical stability (in words): relatively stable
[3]; [9]
  % Impurities, 25-HC: 0.4%
  % Impurities, Total: 1.2%
[3]; [10]
  % Impurities, 25-HC: 0.2%
  % Impurities, Total: 2.2%
[3]; 80° C.
  Stressed stability at 80° C. (in words): good, stressed stability
[3]; 80° C., 3 wk, vs 2-8° C., 30240 min, listed as 25HC3S choline, 30240 min
  % Recovery: 100.8%
[3]; 80° C., 3 wk, 30240 min, listed as 25HC3S choline
  Assay: 102.4 % w/w
[3]; 80° C., 5 weeks
  Physical and chemical solid-state stability (comments): Stable after 5 weeks at 80 °C physically and chemically.
[3]; 80° C., 5 wk, 50400 min, listed as 25HC3S choline
  Assay: 105.2 % w/w
[3]; solid state, 80° C., 5 weeks
  Stability after 5 weeks at 80° C. (in words): stable
[3]; [5]
  remaining at 840 h: 97.3%
[4]; up to 198° C.
  Weight loss by TGA up to 198° C. (in words): negligible weight loss
